# Patent US6737383B1, “Herbicidal oxadiazolidines” (priority 1999, dated 2004)
# Key:
# sugar beet = assay: Test B pre/postemergence sugar beet; format: in vivo, Beta vulgaris
# In short: (§1)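 Test chemicals in a non-phytotoxic solvent mixture with surfactant were sprayed preemergence onto planted seeds and postemergence onto plants 2 to 18 cm tall (1- to 4-leaf stage). After twelve to sixteen days in a greenhouse, injury was visually rated against untreated controls from 0 (no effect) to 10 (complete control).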
# rape = assay: Test B pre/postemergence rape; format: in vivo, Brassica napus
# In short: as §1
# cocklebur = assay: Test B pre/postemergence cocklebur; format: in vivo, Xanthium strumarium
# In short: as §1
# bamyardgrass = assay: Test B flood test barnyardgrass; format: in vivo, Echinochloa crus-galli
# In short: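 Read-out is a visual response score from 0 (no effect) to 10 (complete control), assigned by comparison with untreated controls. Treatment was applied at the 2-leaf stage, and plants stayed in the greenhouse for twelve to sixteen days before scoring.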
# [1] = Preemergence, Rate 62 g/ha, scale of 0 to 10 where 0 is no effect and 10 is complete control
# [2] = Preemergence, Rate 250 g/ha, scale of 0 to 10 where 0 is no effect and 10 is complete control
# [3] = Preemergence, Rate 500 g/ha, scale of 0 to 10 where 0 is no effect and 10 is complete control
# [4] = Rate 62 g/ha, Postemergence, scale 0 to 10 (0 no effect, 10 complete control)
# [5] = Rate 125 g/ha, Postemergence, scale of 0 to 10 where 0 is no effect and 10 is complete control
# [6] = Rate 250 g/ha, Postemergence, scale of 0 to 10 where 0 is no effect and 10 is complete control
# [7] = Rate 125 g/ha, Pre-emergence, flood test species, scale 0 to 10 where 0 is no effect and 10 is complete control
# [8] = Rate 250 g/ha, Pre-emergence, flood-test species, scale 0 to 10, 0 is no effect, 10 is complete control
# [9] = Postemergence, Rate 31 g/ha, visual rating, scale 0 to 10 (0 no effect, 10 complete control)
# [10] = Rate 125 g/ha, Preemergence, scale of 0 to 10 where 0 is no effect and 10 is complete control
# [11] = Postemergence, Rate 125 g/ha, scale of 0 to 10 where 0 is no effect and 10 is complete control
# [12] = Preemergence, Rate 62 g/ha, scale 0 to 10 (0 no effect, 10 complete control)
# [13] = Preemergence, Rate 125 g/ha, 0 is no effect, 10 is complete control
# [14] = Preemergence, Rate 250 g/ha, scale 0 to 10, 0 is no effect, 10 is complete control
# [15] = Preemergence, Rate 500 g/ha, scale 0 to 10 (0 no effect, 10 complete control)
# [16] = Rate 62 g/ha, Postemergence, scale of 0 to 10 where 0 is no effect and 10 is complete control
# [17] = Rate 250 g/ha, Postemergence, scale 0 to 10, 0 is no effect, 10 is complete control
# [18] = Rate 500 g/ha, Postemergence, scale 0 to 10
# [19] = Postemergence, Rate 62 g/ha, scale 0 to 10, 0 is no effect, 10 is complete control
# [20] = Preemergence, Rate 125 g/ha, scale of 0 to 10 where 0 is no effect and 10 is complete control
# [21] = Preemergence, Rate 250 g/ha, scale 0 to 10 (0 no effect, 10 complete control)
# [22] = Rate 500 g/ha, Postemergence, scale 0 to 10, 0 is no effect, 10 is complete control
compound,measurement,setting,value
C=CCn1c(=O)on(C(=O)N(CC)C2CCCCC2)c1=O [Compound 307],Sugarbeets plant response rating,sugar beet; [1],0
same,Sugarbeets plant response rating (0 to 10 scale),"sugar beet; Preemergence, Rate 125 g/ha",0
same,Sugarbeets plant response rating,sugar beet; [2],0
same,Sugarbeets plant response rating,sugar beet; [3],2
same,Sugarbeets plant response rating,sugar beet; [4],0
same,Sugarbeets plant response rating,sugar beet; [5],0
same,"Plant response rating, Sugarbeets",sugar beet; [6],0
same,Rape plant response rating,rape; [1],0
same,Rape plant response rating (0 to 10 scale),"rape; Preemergence, Rate 125 g/ha",0
same,Rape plant response rating,rape; [2],0
same,Rape plant response rating,rape; [3],0
same,Rape plant response rating,rape; [4],0
same,Rape plant response rating,rape; [5],0
same,"Plant response rating, Rape",rape; [6],0
same,Cocklebur plant response rating,cocklebur; [1],0
same,Cocklebur plant response rating (0 to 10 scale),"cocklebur; Preemergence, Rate 125 g/ha",0
same,Cocklebur plant response rating,cocklebur; [2],0
same,Cocklebur plant response rating,cocklebur; [4],0
same,Cocklebur plant response rating,cocklebur; [5],0
same,"Plant response rating, Cocklebur",cocklebur; [6],0
same,Cocklebur plant response rating,"cocklebur; Rate 500 g/ha, Postemergence, scale 0 to 10, 0 no effect, 10 complete control",0
same,Barnyardgrass plant response rating,"bamyardgrass; Pre-emergence, Rate 1000 g/ha, scale 0 to 10 (0 no effect, 10 complete control)",0
same,Barnyardgrass plant response rating,bamyardgrass; [7],0
same,Barnyardgrass plant response rating,bamyardgrass; [8],0
same,Barnyardgrass plant response rating,"bamyardgrass; Rate 500 g/ha, Pre-emergence, flood test species, scale 0 to 10 (0 no effect, 10 complete control)",0
CC(C)N(C(=O)n1oc(=O)n(C(C)C)c1=O)c1cnccn1 [Compound 296],Sugarbeets plant response rating,sugar beet; [9],0
same,Sugarbeets plant response rating,sugar beet; [1],0
same,Sugarbeets plant response rating,sugar beet; [2],0
same,Sugarbeets plant response rating,sugar beet; [4],0
same,Sugarbeets plant response rating,sugar beet; [5],0
same,Sugarbeets plant response rating,sugar beet; [10],0
same,"Plant response rating, Sugarbeets",sugar beet; [6],0
same,Rape plant response rating,rape; [9],0
same,Rape plant response rating,rape; [1],0
same,Rape plant response rating,rape; [2],0
same,Rape plant response rating,rape; [4],0
same,Rape plant response rating,rape; [5],0
same,Rape plant response rating,rape; [10],0
same,"Plant response rating, Rape",rape; [6],0
same,Cocklebur plant response rating,cocklebur; [9],0
same,Cocklebur plant response rating,"cocklebur; Preemergence, Rate 31 g/ha, visual rating, scale 0 to 10 (0 no effect, 10 complete control)",0
same,Cocklebur plant response rating,cocklebur; [1],0
same,Cocklebur plant response rating,cocklebur; [2],0
same,Cocklebur plant response rating,cocklebur; [4],0
same,Cocklebur plant response rating,cocklebur; [5],0
same,Cocklebur plant response rating,cocklebur; [10],0
same,"Plant response rating, Cocklebur",cocklebur; [6],0
same,Barnyardgrass plant response rating,"bamyardgrass; Rate 31 g/ha, Pre-emergence section (flood test species), scale 0 to 10",0
same,Barnyardgrass plant response rating,"bamyardgrass; Rate 62 g/ha, headed Pre-emergence (flood test species), scale 0 to 10 (0 no effect, 10 complete control)",0
same,Barnyardgrass plant response rating,bamyardgrass; [7],0
same,Barnyardgrass plant response rating,bamyardgrass; [8],0
CC(C)c1noc(C(C)C)c1-n1c(=O)on(C(=O)N(c2ccc(F)cc2)C(C)C)c1=O [Compound 135],Sugarbeets plant response rating,sugar beet; [11],0
same,Sugarbeets plant response rating,sugar beet; [12],0
same,Sugarbeets plant response rating (0 to 10 scale),sugar beet; [13],0
same,Sugarbeets plant response rating,sugar beet; [14],0
same,Sugarbeets plant response rating,sugar beet; [15],0
same,Sugarbeets plant response rating,sugar beet; [16],0
same,"Plant response rating, Sugarbeets",sugar beet; [17],0
same,Sugarbeets plant response rating,sugar beet; [18],0
same,Rape plant response rating,rape; [11],0
same,Rape plant response rating,rape; [12],0
same,Rape plant response rating (0 to 10 scale),rape; [13],0
same,Rape plant response rating,rape; [14],0
same,Rape plant response rating,rape; [15],0
same,Rape plant response rating,rape; [16],0
same,"Plant response rating, Rape",rape; [17],0
same,Rape plant response rating,rape; [18],0
same,Cocklebur plant response rating,cocklebur; [11],0
same,Cocklebur plant response rating,cocklebur; [12],0
same,Cocklebur plant response rating (0 to 10 scale),cocklebur; [13],0
same,Cocklebur plant response rating,cocklebur; [14],0
same,Cocklebur plant response rating,cocklebur; [15],0
same,Cocklebur plant response rating,cocklebur; [16],0
same,"Plant response rating, Cocklebur",cocklebur; [17],0
same,Cocklebur plant response rating,cocklebur; [18],0
same,Barnyardgrass plant response rating,"bamyardgrass; Postemergence (flood test species), Rate 125 g/ha, scale of 0 to 10 where 0 is no effect and 10 is complete control",0
same,Barnyardgrass plant response rating,"bamyardgrass; Rate 62 g/ha, Postemergence section, flood test species, scale of 0 to 10 where 0 is no effect and 10 is complete control",0
same,"Plant response rating, Barnyardgrass","bamyardgrass; Rate 250 g/ha, Postemergence (flood test), scale 0 to 10, 0 is no effect, 10 is complete control",0
same,Barnyardgrass plant response rating,"bamyardgrass; Rate 500 g/ha, listed under Postemergence (flood test species), scale 0 to 10, 0 no effect, 10 complete control",0
C=C(Cc1ccccc1)Cn1c(=O)on(C(=O)N(c2ccccc2)C(C)C)c1=O [Compound 650],"Plant response rating, Sugarbeets",sugar beet; [19],0
same,Sugarbeets plant response rating,sugar beet; [11],0
same,Sugarbeets plant response rating,sugar beet; [1],0
same,Sugarbeets plant response rating,sugar beet; [20],0
same,"Plant response rating, Sugarbeets",sugar beet; [21],0
same,"Plant response rating, Sugarbeets",sugar beet; [3],4
same,Sugarbeets plant response rating,sugar beet; [22],0
same,"Plant response rating, Rape",rape; [19],0
same,Rape plant response rating,rape; [11],0
same,Rape plant response rating,rape; [1],0
same,Rape plant response rating,rape; [20],0
same,"Plant response rating, Rape",rape; [21],0
same,"Plant response rating, Rape",rape; [3],2
same,Rape plant response rating,rape; [22],3
same,"Plant response rating, Cocklebur",cocklebur; [19],0
same,Cocklebur plant response rating,cocklebur; [11],0
same,Cocklebur plant response rating,"cocklebur; Postemergence, Rate 250 g/ha, scale of 0 to 10, 0 is no effect, 10 is complete control",0
same,Cocklebur plant response rating,cocklebur; [1],0
same,Cocklebur plant response rating,cocklebur; [20],0
same,"Plant response rating, Cocklebur",cocklebur; [21],0
same,"Plant response rating, Cocklebur",cocklebur; [3],0
same,Cocklebur plant response rating,cocklebur; [22],0
same,"Plant response rating, Barnyardgrass (0 to 10 scale, 0 is no effect, 10 is complete control)","bamyardgrass; Rate 62 g/ha, flood test species, Pre-emergence, visual evaluation after twelve to sixteen days",0
same,"Barnyardgrass plant response rating (0 to 10 scale, 0 is no effect, 10 is complete control)","bamyardgrass; Rate 125 g/ha, under heading Pre-emergence, flood test species, visual evaluation after twelve to sixteen days",0
same,Barnyardgrass plant response rating,"bamyardgrass; Rate 250 g/ha, Pre-emergence (flood test species), scale 0 to 10, 0 is no effect, 10 is complete control",0
same,Barnyardgrass plant response rating,"bamyardgrass; Rate 500 g/ha, Pre-emergence section of Table B, 0 to 10 scale (0 no effect, 10 complete control)",0
